Laboratory results: patent US5998487A, “Anti-inflammatory and antibacterial benzyl phenol agents and their use in oral compositions” (Colgate-Palmolive Company, priority 1998, dated 1999)
≈ marks a conversion by molar mass, not a printed value. Like-named read-outs stand apart in the source and are kept apart here.

Assays:
caries = settings: hamsters; Stralfors 1967; cited from earlier work
COX-2 = molecular target: T1, COX-2 (Homo sapiens, UniProt P35354); test: COX-2 inhibition, oxygen utilization assay; format: biochemical
T1 sequence (P35354 18-604): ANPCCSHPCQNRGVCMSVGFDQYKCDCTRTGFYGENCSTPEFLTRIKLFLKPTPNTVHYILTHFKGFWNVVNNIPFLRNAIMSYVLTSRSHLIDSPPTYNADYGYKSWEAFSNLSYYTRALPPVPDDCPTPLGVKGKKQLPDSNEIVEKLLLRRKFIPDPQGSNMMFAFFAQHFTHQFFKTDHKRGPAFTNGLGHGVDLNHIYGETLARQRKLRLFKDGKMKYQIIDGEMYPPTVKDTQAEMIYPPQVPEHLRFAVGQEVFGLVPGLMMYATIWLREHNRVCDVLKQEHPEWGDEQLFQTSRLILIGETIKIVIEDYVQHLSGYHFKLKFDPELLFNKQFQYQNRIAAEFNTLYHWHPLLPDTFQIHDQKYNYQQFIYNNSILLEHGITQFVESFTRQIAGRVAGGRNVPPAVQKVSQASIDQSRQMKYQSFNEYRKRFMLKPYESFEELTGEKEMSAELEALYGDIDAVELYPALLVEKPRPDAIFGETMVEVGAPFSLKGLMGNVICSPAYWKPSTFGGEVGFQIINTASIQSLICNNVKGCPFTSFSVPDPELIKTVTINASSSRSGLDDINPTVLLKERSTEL
Excerpt: (§1) The efficacy of the AAB compounds of the present invention as inhibitors of COX-1 and COX-2 enzymes was shown using the oxygen utilization assay described in Dewhirst, Prostaglandins, 22, 209-222 (1980). Varying concentrations of 2-t-butyl-4-(4-t-butylbenzyl)-phenol, a compound of the present invention were selected that inhibit the enzymatic activity from 20% to about 80%, as compared to a positive control, no inhibitor. These varying concentrations of 2-t-butyl-4-(4-t-butylbenzyl)-phenol were independently added to COX-1 and COX-2 enzymes in a closed system, in which the enzymes were reacted in a reaction requiring molecular oxygen. The degree of inhibition of the COX enzyme activity was measured by the reduction in monitored oxygen consumption as a function of time within the closed system. The COX enzyme IC50, concentration of 2-t-butyl-4-(4-t-butylbenzyl)-phenol found to inhibit 50% of the activity of the COX-1 and COX-2 enzymes is recorded in Table II.
(§2) For comparison, the COX enzyme IC50 assay methodology of Example III was repeated using triclosan, an agent known to inhibit PG by inhibiting the production of its COX-1 and COX-2 precursors.

[1] = tested on: PGE2 production in Human Embryo Palatal Mesenchyme cells (HEPM, ATCC #1486); test: Inhibition of PGE2 production in IL-1β-stimulated HEPM cells; format: cell-based; settings: for IC50: Homo sapiens, read-out: IC50 Concentration to Inhibit 50% of PGE2
Description: Specifically, Human Embryo Palatal Mesenchyme cells (HEPM, ATCC #1486) cells were grown in high glycose Delbeco's Modified Eagles Medium (DMEM, Gibco/BRL-Life Technologies, Grand Island, N.Y.) containing 10% heat inactivated fetal bovine serum (FBS, Gibco/BRL). The cells were grown at 37° C., 100% humidity, and 10% CO2. Prior to analysis, the cells were subcultured into 24 well plates, to form 12 sets of duplicate cultures, and allowed to become 70-90% confluent. On day one of the experiment, the cells were washed three times with serum free media (containing 0.5% bovine serum albumin, BSA), followed by replacement with BSA containing media alone (the negative control) in the first culture set; media and 1.0 ng/mL IL-1β (the positive control, without any inhibitor) in the second culture set; and media, 1.0 ng/mL IL-1β, and a range of from 0.01 μM to 50 μM of 2-t-butyl-4-(4-t-butylbenzyl)-phenol in the third thru twelfth culture sets. Exposure was for 24 hours at which time the media was removed from each well, the media's pH was adjusted to 3.5 with HCl, and the media was analyzed for PGE2 produced using a PerSeptive Diagnostics TiterFluor PGE2 EIA kit, available from PerSeptive Biosystems, Framingham, Mass. 01701.
Prior to determining the PGE2 inhibitory effect of the 2-t-butyl-4-(4-t-butylbenzyl)-phenol compound of the present invention, the results must be normalized with respect to the number of viable cells in each culture well; more or less cells producing correspondingly more or less PGE2. […] Once dissolved, the spectroscopic absorbance of 100 μl of the isopropanol solution from each culture well was determined at 570 nm. A normalization factor, the cell concentration ratio, was calculated for each culture well, by dividing the absorbance of the particular culture well's isopropanol solution by the average absorbance of the unstimulated negative control set's isopropanol solutions. The PGE2 originally determined for each culture well was then normalized by being […] the cell concentration ratio calculated for that particular culture well. […]

COX-1 = COX-1 (Ovis aries, UniProt P05979); test: COX-1 inhibition, oxygen utilization assay; format: biochemical; settings: for IC50: oxygen consumption, read-out: IC50 Conc. to Inhibit 50% of COX-1 Activity
Excerpt: as §1, §2

A. viscosus = test: MIC (Minimum Inhibitory Concentration) test; format: cell-based; settings: for MIC: Actinomyces viscosus, read-out: MIC (Bacterial Minimum Inhibitory Concentration)
Description: The smaller the MIC, the greater the antibacterial activity of the compound being tested.
Using a 96 well microtiter plate, a 100 μl of trypticase soy broth (TSB) media, available from BBL, Cockeysville, Md. 21030, was placed in each of the 12 columns within the plate. Using a octapette pipettor, the 2-t-butyl-4-(4-t-butylbenzyl)-phenol compound was serially diluted to each of the 12 columns, from 125 ppm in the first well of each column, to 0.061 ppm in the 12th (each column containing 1/2 the concentration of 2-t-butyl-4-(4-t-butylbenzyl)-phenol compound than the previous column). To each of the 12 columns an additional 100 μl of TBS was added containing A. viscosus bacterium, a common oral bacteria, at a concentration optical density of 0.1, at 610 nm. The plate was then sealed and incubated for 24 hours at 37° C.
The procedure of Example IV was simultaneously run with water as a negative control and using a known efficacious antibacterial agent, triclosan, as a comparative and positive control. The MIC determined for the triclosan is also recorded in Table III for comparative purposes.

microbial challenge = settings: EP 0 528 468 A1; cited from earlier work
cyclooxygenase = settings: EP 0 528 468 A1; cited from earlier work

Sequence of COX-1 (P05979 25-600): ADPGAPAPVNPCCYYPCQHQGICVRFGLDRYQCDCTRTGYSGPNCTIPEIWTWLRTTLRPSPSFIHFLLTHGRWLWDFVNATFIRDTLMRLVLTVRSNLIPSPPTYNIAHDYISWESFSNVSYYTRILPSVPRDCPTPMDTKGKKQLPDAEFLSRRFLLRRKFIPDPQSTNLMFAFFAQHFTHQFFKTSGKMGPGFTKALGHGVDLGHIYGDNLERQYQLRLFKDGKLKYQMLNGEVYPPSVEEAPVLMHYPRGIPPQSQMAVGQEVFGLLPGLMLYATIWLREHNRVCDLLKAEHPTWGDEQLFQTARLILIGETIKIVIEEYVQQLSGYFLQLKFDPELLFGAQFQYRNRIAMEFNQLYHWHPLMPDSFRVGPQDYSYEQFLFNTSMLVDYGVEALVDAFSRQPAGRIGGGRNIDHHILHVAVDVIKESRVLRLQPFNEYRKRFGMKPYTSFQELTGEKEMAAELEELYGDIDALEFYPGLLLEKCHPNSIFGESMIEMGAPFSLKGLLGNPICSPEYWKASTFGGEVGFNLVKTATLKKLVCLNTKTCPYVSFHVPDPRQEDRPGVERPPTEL

For `O=C(O)C=Cc1ccc(O)c(O)c1` [caffeic acid, 3,4-dihydroxycinnamic acid], the adverse weight loss (caries) is listed as “without adverse weight loss” and the inhibition of caries (caries) is listed as “inhibit caries”.

In the case of `O=C(O)c1ccc(O)c(O)c1` [protocatechuic acid, 3,4-dihydroxybenzoic acid], the adverse weight loss (caries) is listed as “without adverse weight loss” and the inhibition of caries (caries) is listed as “inhibit caries”.

For `O=c1c(O)c(-c2ccc(O)c(O)c2)oc2cc(O)cc(O)c12` [quercetin, pentahydroxyflavone], the adverse weight loss (caries) is given as “without adverse weight loss”.

For `CC(C)(C)c1ccc(Cc2ccc(O)c(C(C)(C)C)c2)cc1` [2-t-butyl-4-(4-t-butylbenzyl)-phenol], the IC50 (COX-2; oxygen consumption, read-out: IC50 Conc. to Inhibit 50% of COX-2 Activity) was 100 µM, the “efficacy as COX-2 inhibitor relative to triclosan” value (COX-2; vs triclosan, from Table II) was “over 2 times” and the IC50 ([1]; HEPM cells, 1.0 ng/mL IL-1β, 24 hours, normalized to viable cells (MTT)) was 3.7 µM. The “efficacy as PGE2 inhibitor relative to triclosan” value ([1]; vs triclosan, from Table I) was about 2 times, the IC50 (COX-1) was 17.4 µM and the “efficacy as COX-1 inhibitor relative to triclosan” value (COX-1; vs triclosan, from Table II) was “over 2 times”. For the same compound, the MIC (A. viscosus; A. viscosus, TSB, 24 hours, 37° C.) was 0.24 µg/mL (≈ 0.81 µM) and the “MIC relative to that of triclosan” value (A. viscosus; vs triclosan, from Table III) was “about 7%”.

In the case of `Oc1cc(Cl)ccc1Oc1ccc(Cl)cc1Cl` [Triclosan, 2',4,4'-trichloro-2-hydroxy-diphenyl-ether], the IC50 (COX-2) is given as 229 µM, the “reduction of microbial challenge” value (microbial challenge) is given as “reduces microbial challenge” and the IC50 ([1]; 24 h) is given as 7 µM. For the same compound, the “inhibition of cyclooxygenase activity” value (cyclooxygenase) was “inhibits cyclooxygenase activity”, the IC50 (COX-1) was 43 µM and the MIC (A. viscosus; 24 h) was 3.61 µg/mL (≈ 12.5 µM).
